# Earlier results as cited in patent US7122627B2, “Lactam inhibitors of Hepatitis C virus NS3 protease” (Bristol-Myers Squibb Company, priority 1999, dated 2006).
# [ ]: non-standard residue; d: D form.
# Columns and labels:
# [1] = biological target: HCV protease
# [2] = tested on: Hepatitis C virus (HCV)
substance,measurement,setting,value
Ac-Asp-Glu-Dpa-Glu-Cha-Cys-OH,Ki,[1]; reported in Biochemistry 37 (1998),< 1 µM
Ac-D[dD]IVPC-OH,effectiveness compared with all L isomer,[1]; Llinas-Brunet et al. Bioorg. Med. Chem. Lett. 8 1713-1718 (1998),more effective than its all “L” isomer
alpha interferon,patients in whom treatment is effective,"[2]; current treatment, monotherapy",15-20%
alpha interferon and ribavirin,patients with sustained efficacy,"[2]; combination therapy, Poynard et al. Lancet 1998",40%
